Experimental data reported in article PMC12355554, “Development of novel mitochondrial pyruvate carrier inhibitors for breast cancer treatment” (The Journal of Biological Chemistry, 2025).

Experiments:
[1] = biological target: T1, mitochondrial pyruvate carrier (MPC) (Mus musculus, UniProt P63030+Q9D023); assay: Seahorse XFe96 Pyr-driven respiration in rPFO-permeabilized 4T1 cells; format: cell-based, murine; conditions: read-out: IC50, inhibition of Pyr-driven respiration
T1 construct: host or cells: 4T1 murine breast cancer cells, rPFO-permeabilized
T1 sequence (P63030 1-109): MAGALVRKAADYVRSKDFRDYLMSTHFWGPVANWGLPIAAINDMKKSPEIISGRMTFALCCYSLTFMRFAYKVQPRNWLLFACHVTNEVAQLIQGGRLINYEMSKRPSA
T1 sequence (Q9D023 1-127): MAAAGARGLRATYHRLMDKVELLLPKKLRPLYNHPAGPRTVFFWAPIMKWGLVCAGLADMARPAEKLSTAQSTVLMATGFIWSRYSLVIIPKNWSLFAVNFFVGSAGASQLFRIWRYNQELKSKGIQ
Protocol: After validating the ability of rPFO to permeabilize 4T1 cells without damaging mitochondria, we sought to investigate the ability of candidate compounds to inhibit Pyr-driven respiration in these cells (Fig. 1, D–G). In this regard, 4T1 cells were seeded in Seahorse XFe96 well plates and were incubated to reach confluence (∼18–24 h) in growth media (+serum). Growth media were then aspirated, and cells were washed with MAS buffer to remove serum and endogenous metabolic substrates. Serum- and substrate-starved cells were then incubated for equilibration in MAS buffer in a non-CO2 incubator. Inhibitors, rPFO, and substrate milieus were prepared in MAS buffer to be injected in succession to allow for real-time observation of the effects of compound-treated cultures on oxygen consumption rates (OCRs) when compared with vehicle (dimethyl sulfoxide [DMSO])-treated cells. Equilibrated intact cells were allowed to establish basal respiratory rates, followed by the injection of candidate compounds C1 to C4 at varying dose-titrated concentrations, respectively, and acute decreases in OCR were observed (Fig. 1, D–G). Compound exposure was performed in intact cells to avoid influence of rPFO on acute cellular targets. Cells were then exposed to rPFO, followed by the carbonyl cyanide-p-trifluoromethoxyphenylhydrazone (FCCP)–stimulated Pyr substrate milieu, which consisted of Pyr, malate (Mal), and dichloroacetate (DCA) to fuel uninhibited Pyr respiratory flux and maximal respiration. Mal and DCA were included to allow for continuous TCA cycle function without acetyl CoA feedback–mediated inhibition (Mal) or Pyr dehydrogenase–regulated inhibition (DCA) of Pyr uptake. Here, we observed a dose-dependent inhibition of Pyr-driven respiration in cells treated with the candidate compounds, allowing for logarithmic dose–response curves to be generated, and 50% inhibitory concentrations (IC50) to be calculated (Fig. 1, D–G). Finally, complex I and […] were injected to halt respiration and end the assay. […] In this regard, the fluoro-aminocarboxycoumarin derivative C4 has been designated as the lead candidate for further investigation.
Permeabilized cell assays were performed using rPFO as described previously. 4T1 cells were seeded (20,000 cells/well) onto Seahorse XFe96 well plates and incubated overnight in growth media at 37 °C and 5% CO2 for adherence. On the day of the assay, growth media were aspirated and replaced with MAS buffer (70 mM sucrose, 220 mM mannitol, 10 mM potassium phosphate monobasic, 5 mM magnesium chloride, 2 mM Hepes, and 1 mM EGTA) after 3X rinse of growth media to remove serum and endogenous metabolic substrates, and incubated at 37 °C in a non-CO2 incubator. Respective inhibitor and substrate milieu's were prepared in MAS buffer for port injections A–D at 8X, 9X, 10X, and 11X the target cell concentrations to account for intrinsic dilution factor of in situ injections of each port. […] Final substrate concentrations for specific tests were as follows: (5 mM Pyr , 0.5 mM Mal, 2 mM DCA; 10 mM glutamate, 0.5 mM Mal, 2 mM DCA; 10 mM succinate, 2 μM rotenone; 20 mM methyl Pyr, 5 mM Pyr, 0.5 mM Mal, and 2 mM DCA). ATP rate assays and mitochondrial stress tests were performed according to the manufacturer's (Agilent) instructions.

4T1 cells [2] = assay: Seahorse mitochondrial stress test in intact 4T1 cells; format: cell-based, murine
67NR = assay: MTT cell proliferation inhibition assay, 67NR; format: cell-based, murine; conditions: Mus musculus, 72 h, 3 days, average ± SEM
Protocol: Confluent cell cultures were treated with trypsin and resuspended at 5 × 10^4 cells/ml. To a 96-well plate, 100 μl of the 5 × 10^4 cells/ml solution were added and allowed to incubate at 37 °C, 5% CO2 for 24 h. Compounds were then added and allowed to incubate for 3 days. […] Following the 4-h incubation with 3-(4,5-dimethylthiazol-2-yl)-2,5-diphenyltetrazolium bromide, 100 μl of SDS (0.1 g/ml, 0.01 N HCl) was added, and 96-well plates were allowed to incubate for an additional 4 h. […] Treatment absorbances are taken as percentages of the average untreated absorbances and plotted against log(concentration) in GraphPad Prism 10 (GraphPad Software, Inc) to generate effective concentration values where 50% of the cells are not proliferating (EC50).

in vivo = conditions: BALB/c, mouse; for bioavailability / Vd / clearance: plasma; for half-life: in vivo
Protocol: IV dosing allows for analysis under the assumption of total systemic absorption (Fig. S3A).
In a contract organization Medicilon, 35 male and 35 female BALB/c mice were randomized and put into two groups (n = 15) per sex for each route of administration (4 total groups). Extra mice were used for collection of blank plasma. […] Each time point utilized three mice per group, and each mouse had two blood draws. The blood samples were collected in K2EDTA tubes on ice, centrifuged at 6800g (6 min, 4 °C) to generate plasma samples. The plasma samples were stored below −70 °C until LC–MS/MS analysis. […] After data acquisition, noncompartmental analysis parameters were calculated by Pheonix WinNonlin 7.0.

4T1 cells [3] = assay: L-lactate accumulation assay, 4T1; conditions: MCT1-expressing 4T1 cells; 24 h
Protocol: To test this, we assayed intracellular lactate accumulation following C5 treatment in MCT1-expressing 4T1 cells and MCT4-expressing MDA-MB-231 cells using commercially available lactate kits.
On the third day, media were aspirated, and wells were rinsed twice with cold PBS. […] At this time, 1 ml of PBS was added to each well and underwent freeze–thaw lysis at −80 °C. Media in each well were aliquoted and centrifuged (16,000g, 10 min, 4 °C). The lysate supernatant was then aliquoted, and pellet was discarded. L-lactate concentration was then determined using Eton Biosciences L-Lactate assay kit 1 by mixing lysate sample with L-lactate assay solution in duplicate, incubating for 30 min (37 °C, 0% CO2) and measuring absorbance of enzyme produced INT formazan at 490 nm using a BioTek Synergy 2 plate reader. Absorbance values were compared with an L-lactate standard curve concomitantly ran with test samples to determine lactate concentration in each sample. Lactate concentrations were normalized to total protein using a Pierce Bicinchoninic Acid Protein Assay Kit.

CN(Cc1ccc(C(F)(F)F)cc1)c1ccc2cc(C(=O)O)c(=O)oc2c1.NC(CO)(CO)CO [C5, 1,3-dihydroxy-2-(hydroxymethyl)propan-2-aminium 7-(methyl(4-(trifluoromethyl)benzyl)amino)-2-oxo-2H-chromene-3-carboxylate]
IC50 [1]: 0.0144 ± 0.0005 µM
compensatory glycolysis (extracellular acidification rates) (4T1 cells [2]): dose-dependent decrease
mitochondrial respiration (OCR) (4T1 cells [2]; media with glucose, Pyr, glutamine): inhibited mitochondrial respiration in a dose-dependent fashion
EC50 (67NR): 48 ± 4.3 µM
clinical observations after single oral dose (oral 10, 25, and 40 mg/kg, 7 days): no signs of clinical toxicity
gross pathology, including general cardiotoxicity, after organ resection (oral, end of study): no gross pathology
bioavailability (in vivo; both, po, 5 mg/kg): ~100%
half-life (in vivo; female, iv, 1 mg/kg): 3.15 h
half-life (in vivo; female, po, 5 mg/kg): 4.41 h
Vd (in vivo; female, iv, 1 mg/kg): 6.92 L/kg
clearance (in vivo; female, iv, 1 mg/kg): 26.6 mL/min/kg
bioavailability (in vivo; female, po, 5 mg/kg): 125%
half-life (in vivo; male, iv, 1 mg/kg): 3.65 h
half-life (in vivo; male, po, 5 mg/kg): 4.04 h
Vd (in vivo; male, iv, 1 mg/kg): 10.2 L/kg
clearance (in vivo; male, iv, 1 mg/kg): 34.3 mL/min/kg
bioavailability (in vivo; male, po, 5 mg/kg): 124%
intracellular lactate accumulation (4T1 cells [3]): potent accumulation of lactate
